The text below walks through data of patent US9926281B2 (priority 2014, dated 2018).

A value given as a limit tells only on which side of the number the result lay.

The target of one experiment is human MMP14 (Homo sapiens (Human), UniProt P50281). The settings on record: read-out: hMMP-14 potency IC50.
The next experiment has as its target human TACE (Homo sapiens (Human), UniProt P78536). The settings on record: read-out: TACE potency IC50.
The target in a further experiment is human ADAMTS-5 (Homo sapiens (Human), UniProt Q9UNA0). The settings on record: read-out: hADAMTS-5 potency IC50.
Sequence of human ADAMTS-5 (Q9UNA0 262-930): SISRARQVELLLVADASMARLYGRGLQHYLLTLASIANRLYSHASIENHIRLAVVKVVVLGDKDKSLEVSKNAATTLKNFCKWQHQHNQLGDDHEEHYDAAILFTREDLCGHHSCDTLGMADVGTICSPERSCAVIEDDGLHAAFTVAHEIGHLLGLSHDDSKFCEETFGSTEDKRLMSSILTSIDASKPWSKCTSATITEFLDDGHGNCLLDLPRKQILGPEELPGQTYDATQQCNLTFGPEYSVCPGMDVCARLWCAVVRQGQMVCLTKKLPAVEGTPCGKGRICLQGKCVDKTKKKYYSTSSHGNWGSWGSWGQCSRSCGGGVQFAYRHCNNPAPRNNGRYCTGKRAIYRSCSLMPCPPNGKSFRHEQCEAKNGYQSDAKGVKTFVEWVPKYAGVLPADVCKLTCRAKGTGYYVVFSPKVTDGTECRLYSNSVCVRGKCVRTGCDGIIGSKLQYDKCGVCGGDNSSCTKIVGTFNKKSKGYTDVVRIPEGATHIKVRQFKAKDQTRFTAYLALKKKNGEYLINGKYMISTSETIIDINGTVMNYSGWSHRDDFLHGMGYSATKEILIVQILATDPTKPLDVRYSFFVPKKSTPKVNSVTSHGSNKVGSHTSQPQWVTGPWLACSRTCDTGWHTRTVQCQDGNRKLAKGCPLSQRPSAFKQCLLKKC

Sequence of human TACE (P78536 whole entry, looked up, change not shown): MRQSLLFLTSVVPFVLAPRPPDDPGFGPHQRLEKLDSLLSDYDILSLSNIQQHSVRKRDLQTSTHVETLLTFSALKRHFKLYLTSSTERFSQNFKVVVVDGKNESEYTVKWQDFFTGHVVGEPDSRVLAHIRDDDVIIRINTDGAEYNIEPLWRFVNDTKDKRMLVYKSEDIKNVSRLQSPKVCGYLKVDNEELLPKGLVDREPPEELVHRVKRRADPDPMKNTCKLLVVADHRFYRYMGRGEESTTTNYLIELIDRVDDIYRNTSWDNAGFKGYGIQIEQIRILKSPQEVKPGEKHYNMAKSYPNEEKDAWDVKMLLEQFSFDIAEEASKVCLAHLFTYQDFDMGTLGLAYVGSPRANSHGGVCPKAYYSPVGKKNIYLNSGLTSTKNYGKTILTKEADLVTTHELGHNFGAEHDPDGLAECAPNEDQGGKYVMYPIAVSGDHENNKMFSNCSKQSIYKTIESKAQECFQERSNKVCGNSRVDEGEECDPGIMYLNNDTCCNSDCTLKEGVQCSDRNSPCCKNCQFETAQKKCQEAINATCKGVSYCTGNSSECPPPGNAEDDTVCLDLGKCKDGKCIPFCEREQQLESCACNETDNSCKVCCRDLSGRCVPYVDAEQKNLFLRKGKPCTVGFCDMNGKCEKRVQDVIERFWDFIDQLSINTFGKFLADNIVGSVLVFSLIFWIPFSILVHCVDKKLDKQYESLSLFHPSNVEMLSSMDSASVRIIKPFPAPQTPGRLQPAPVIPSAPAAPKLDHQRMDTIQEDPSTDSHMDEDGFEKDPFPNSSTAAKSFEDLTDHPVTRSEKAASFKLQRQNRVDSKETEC
Method for human ADAMTS-5: Finally, the fluorescence is read on the Envision (Perkin Elmer) after an incubation of 90 min at 37° C.

Regarding `Cc1ccc(C2(CCC(=O)N3CCN(c4ccc(F)c(Cl)c4)[C@@H](C)C3)NC(=O)NC2=O)cn1` (stereo partly drawn) [compound 287, 5-[3-[(3S)-4-(3-chloro-4-fluoro-phenyl)-3-methyl-piperazin-1-yl]-3-oxo-propyl]-5-(6-methyl-3-pyridyl)imidazolidine-2,4-dione], the IC50 on human MMP14 is above 4 µM; on human TACE it was above 4 µM; at human ADAMTS-5 it was 0.052 µM.
For the compound `Cc1cncc(N2CCN(C(=O)C(C)CC3(C4CC4)NC(=O)NC3=O)C[C@@H]2C)c1` (stereo partly drawn) [compound 342, 5-cyclopropyl-5-[2-methyl-3-[(3S)-3-methyl-4-(5-methyl-3-pyridyl)piperazin-1-yl]-3-oxo-propyl]imidazolidine-2,4-dione], the IC50 was 2.6 µM at human MMP14, above 4 µM on human TACE and 0.039 µM at human ADAMTS-5.
Regarding `C[C@H]1CN(C(=O)CCC2(c3cncnc3)NC(=O)NC2=O)CCN1c1cc(F)cc(F)c1` (stereo partly drawn) [compound 332, 5-[3-[(3S)-4-(3,5-difluorophenyl)-3-methyl-piperazin-1-yl]-3-oxo-propyl]-5-pyrimidin-5-yl-imidazolidine-2,4-dione], the results for the IC50 at human MMP14, on human TACE and at human ADAMTS-5 were 0.378 µM, above 20 µM and 0.061 µM, respectively.
Taken in the same sequence, the figures for `CC(CC1(C)NC(=O)NC1=O)C(=O)N1CCN(c2cccc(-c3cn[nH]c3)c2)[C@@H](C)C1` (stereo partly drawn) [compound 371] were 0.682 µM, above 3.73 µM and 0.042 µM.
Taken in the same sequence, the figures for `C[C@H]1CN(C(=O)CCC2(C3CC3)NC(=O)NC2=O)CCN1c1cncc(F)c1` (stereo partly drawn) [compound 261, 5-cyclopropyl-5-[3-[(3S)-4-(5-fluoro-3-pyridyl)-3-methyl-piperazin-1-yl]-3-oxo-propyl]imidazolidine-2,4-dione] were above 20 µM, above 20 µM and 0.165 µM.
With `CC(CC1NC(=O)NC1=O)C(=O)N1CCN(c2ccc(F)c(F)c2)[C@@H](C)C1` (stereo partly drawn) [compound 251, 5-[3-[(3S)-4-(3,4-difluorophenyl)-3-methyl-piperazin-1-yl]-2-methyl-3-oxo-propyl]imidazolidine-2,4-dione], the figures for the IC50 at human MMP14, at human TACE and at human ADAMTS-5 were above 4 µM, above 12 µM and 0.094 µM, respectively.
With `C[C@H]1CN(C(=O)CCC2(C3CC3)NC(=O)NC2=O)CCN1c1cncc(Cl)c1` (stereo partly drawn) [compound 260, 5-[3-[(3S)-4-(5-chloro-3-pyridyl)-3-methyl-piperazin-1-yl]-3-oxo-propyl]-5-cyclopropyl-imidazolidine-2,4-dione], the IC50 is above 20 µM at human MMP14, above 20 µM at human TACE and 0.126 µM at human ADAMTS-5.
With `C[C@H]1CN(C(=O)CCC2(c3cnccn3)NC(=O)NC2=O)CCN1c1cc(F)cc(Cl)c1` (stereo partly drawn) [compound 326, 5-[3-[(3S)-4-(3-chloro-5-fluoro-phenyl)-3-methyl-piperazin-1-yl]-3-oxo-propyl]-5-pyrazin-2-yl-imidazolidine-2,4-dione], the IC50 at human MMP14 is above 4 µM; on human TACE, above 4 µM; at human ADAMTS-5 it was 0.052 µM.
In the case of `CC(CC1(C)NC(=O)NC1=O)C(=O)N1CCN(c2cncc(F)c2)[C@@H](C)C1` (stereo partly drawn) [compound 277, 5-[3-[(3S)-4-(5-fluoro-3-pyridyl)-3-methyl-piperazin-1-yl]-2-methyl-3-oxo-propyl]-5-methyl-imidazolidine-2,4-dione], the IC50 at human MMP14 is above 20 µM; on human TACE, above 4 µM; on human ADAMTS-5 it was 0.152 µM.
As to `CC(CC1(C)NC(=O)NC1=O)C(=O)N1CCN(c2ccc(F)cc2)[C@@H](C)C1` (stereo partly drawn) [compound 365, 5-[3-[(3S)-4-(4-fluorophenyl)-3-methyl-piperazin-1-yl]-2-methyl-3-oxo-propyl]-5-methyl-imidazolidine-2,4-dione], the values for the IC50 at human MMP14, at human TACE and at human ADAMTS-5 were above 20 µM, above 9.33 µM and 0.072 µM, respectively.
Consider `C[C@H]1CN(C(=O)CCC2(c3cccnc3)NC(=O)NC2=O)CCN1c1cc(F)cc(Cl)c1` (stereo partly drawn) [compound 317, 5-[3-[(3S)-4-(3-chloro-5-fluoro-phenyl)-3-methyl-piperazin-1-yl]-3-oxo-propyl]-5-(3-pyridyl)imidazolidine-2,4-dione], for which the half-maximal inhibitory concentration (IC50) on human MMP14 was 0.823 µM; at human TACE, above 4 µM; at human ADAMTS-5 it was 0.052 µM.
In the case of `C[C@H]1CN(C(=O)CCC2(C3CC3)NC(=O)NC2=O)CCN1c1cccc(-c2cn[nH]c2)c1` (stereo partly drawn) [compound 282, 5-cyclopropyl-5-[3-[(3S)-3-methyl-4-[3-(1H-pyrazol-4-yl)phenyl]piperazin-1-yl]-3-oxo-propyl]imidazolidine-2,4-dione], the IC50 at human MMP14 is above 20 µM; at human TACE, above 20 µM; at human ADAMTS-5, 0.11 µM.
For `C[C@H]1CN(C(=O)CCC2(c3cnn(C)c3)NC(=O)NC2=O)CCN1c1cc(F)cc(F)c1` (stereo partly drawn) [compound 397, 5-[3-[(3S)-4-(3,5-difluorophenyl)-3-methyl-piperazin-1-yl]-3-oxo-propyl]-5-(1-methylpyrazol-4-yl)imidazolidine-2,4-dione], the figures for the IC50 at human MMP14, at human TACE and at human ADAMTS-5 were 0.026 µM, above 4 µM and 0.037 µM, respectively.
For the compound `Cc1cc(C2(CCC(=O)N3CCN(c4cc(F)cc(F)c4)[C@@H](C)C3)NC(=O)NC2=O)ccn1` (stereo partly drawn) [compound 367, 5-[3-[(3S)-4-(3,5-difluorophenyl)-3-methyl-piperazin-1-yl]-3-oxo-propyl]-5-(2-methyl-4-pyridyl)imidazolidine-2,4-dione], the IC50 on human MMP14 was above 20 µM; at human TACE it was above 4 µM; at human ADAMTS-5 it was 0.044 µM.
With `C[C@H]1CN(C(=O)CCC2(c3cccnc3)NC(=O)NC2=O)CCN1c1ccc(F)c(Cl)c1` (stereo partly drawn) [compound 316, 5-[3-[(3S)-4-(3-chloro-4-fluoro-phenyl)-3-methyl-piperazin-1-yl]-3-oxo-propyl]-5-(3-pyridyl)imidazolidine-2,4-dione], the IC50 on human MMP14 is above 20 µM; on human TACE, above 4 µM; on human ADAMTS-5 it was 0.061 µM.
For `C[C@H]1CN(C(=O)CCC2(c3cnccn3)NC(=O)NC2=O)CCN1c1cc(F)cc(F)c1` (stereo partly drawn) [compound 327, 5-[3-[(3S)-4-(3,5-difluorophenyl)-3-methyl-piperazin-1-yl]-3-oxo-propyl]-5-pyrazin-2-yl-imidazolidine-2,4-dione], the results for the IC50 on human MMP14, at human TACE and at human ADAMTS-5 were above 4 µM, above 4 µM and 0.045 µM, respectively.
Turning to `C[C@H]1CN(C(=O)CCC2(C3CC3)NC(=O)NC2=O)CCN1c1cccc(Br)c1` (stereo partly drawn) [compound 270, 5-[3-[(3S)-4-(3-bromophenyl)-3-methyl-piperazin-1-yl]-3-oxo-propyl]-5-cyclopropyl-imidazolidine-2,4-dione], the half-inhibitory concentration (IC50) on human MMP14 was above 4 µM; at human TACE it was above 4 µM; at human ADAMTS-5 it was 0.076 µM.
As for `CC(CC1(C2CC2)NC(=O)NC1=O)C(=O)N1CCN(c2cccnc2)[C@@H](C)C1` (stereo partly drawn) [compound 351, 5-cyclopropyl-5-[2-methyl-3-[(3S)-3-methyl-4-(3-pyridyl)piperazin-1-yl]-3-oxo-propyl]imidazolidine-2,4-dione], the IC50 was 3.84 µM on human MMP14, above 20 µM on human TACE and 0.035 µM at human ADAMTS-5.
Regarding `C[C@H]1CN(C(=O)CC[C@@]2(C3CC3)NC(=O)NC2=O)CCN1c1cc(F)cc(-c2cn[nH]c2)c1` [compound 357, (5S)-5-cyclopropyl-5-[3-[(3S)-4-[3-fluoro-5-(1H-pyrazol-4-yl)phenyl]-3-methyl-piperazin-1-yl]-3-oxo-propyl]imidazolidine-2,4-dione], the half-inhibitory concentration (IC50) is above 20 µM on human MMP14, above 4 µM on human TACE and 0.025 µM on human ADAMTS-5.
Regarding `CC(CC1(C2CC2)NC(=O)NC1=O)C(=O)N1CCN(c2cncc(F)c2)[C@@H](C)C1` (stereo partly drawn) [compound 313, 5-cyclopropyl-5-[3-[(3S)-4-(5-fluoro-3-pyridyl)-3-methyl-piperazin-1-yl]-2-methyl-3-oxo-propyl]imidazolidine-2,4-dione], the IC50 was above 20 µM at human MMP14, above 20 µM on human TACE and 0.034 µM on human ADAMTS-5.
For the compound `Cc1nc(C2(CCC(=O)N3CCN(c4cc(F)cc(F)c4)[C@@H](C)C3)NC(=O)NC2=O)c(C)o1` (stereo partly drawn) [compound 396, 5-[3-[(3S)-4-(3,5-difluorophenyl)-3-methyl-piperazin-1-yl]-3-oxo-propyl]-5-(2,5-dimethyloxazol-4-yl)imidazolidine-2,4-dione], the values for the IC50 at human MMP14, at human TACE and on human ADAMTS-5 were 0.007 µM, above 4 µM and 0.053 µM, respectively.
For `Cc1cccc(C2(CCC(=O)N3CCN(c4cccc(F)c4)[C@@H](C)C3)NC(=O)NC2=O)n1` (stereo partly drawn) [compound 308, 5-[3-[(3S)-4-(3-fluorophenyl)-3-methyl-piperazin-1-yl]-3-oxo-propyl]-5-(6-methyl-2-pyridyl)imidazolidine-2,4-dione] the same measures were above 20 µM, above 4 µM and 0.059 µM.
As for `CCC1(C[C@H](C)C(=O)N2CCN(c3cncc(Cl)c3)[C@@H](C)C2)NC(=O)NC1=O` (stereo partly drawn) [compound 359, 5-[(2S)-3-[4-(5-chloro-3-pyridyl)-3-methyl-piperazin-1-yl]-2-methyl-3-oxo-propyl]-5-ethyl-imidazolidine-2,4-dione], the results for the IC50 on human MMP14, at human TACE and on human ADAMTS-5 were 0.978 µM, above 12 µM and 0.083 µM, respectively.
`Cc1cccc(C2(CCC(=O)N3CCN(c4cc(F)cc(Cl)c4)[C@@H](C)C3)NC(=O)NC2=O)n1` (stereo partly drawn) [compound 307, 5-[3-[(3S)-4-(3-chloro-5-fluoro-phenyl)-3-methyl-piperazin-1-yl]-3-oxo-propyl]-5-(6-methyl-2-pyridyl)imidazolidine-2,4-dione]: the IC50 was above 20 µM at human MMP14, 3.59 µM on human TACE and 0.044 µM at human ADAMTS-5.
Turning to `CC(CC1(C)NC(=O)NC1=O)C(=O)N1CCN(c2cncc(Cl)c2)[C@@H](C)C1` (stereo partly drawn) [compound 276, 5-[3-[(3S)-4-(5-chloro-3-pyridyl)-3-methyl-piperazin-1-yl]-2-methyl-3-oxo-propyl]-5-methyl-imidazolidine-2,4-dione], the IC50 on human MMP14 was above 20 µM; on human TACE it was above 4 µM; on human ADAMTS-5 it was 0.115 µM.
